For assay [1], the system named is Plasmodium falciparum. The assay is described as follows: Inhibitory activity against Plasmodium falciparum D6. The format is functional, organism-based.
Assay [2] concerns Plasmodium falciparum. The assay is described as follows: Inhibitory activity against Plasmodium falciparum W2. The format is functional, organism-based.
For assay [3], the system named is Plasmodium falciparum. The assay can be described thus: Antimalarial activity against Plasmodium falciparum D6 as IC50 relative to artemisinin. In kind it is functional.
Assay [4] deals with Plasmodium falciparum. The assay can be described thus: Antimalarial activity against Plasmodium falciparum W2 clone as relative IC50 to artemisinin. The format is functional.

Data on four compounds can be found in ChEMBL document CHEMBL1132500, “Structure and antimalarial activity of adducts of 11-azaartemisinin with conjugated terminal acetylenes” (Bioorg Med Chem Lett, 1999).

Each structure is given as a SMILES string. Converted amounts (≈) assume the structure as drawn.

Regarding `C[C@@H]1CC[C@H]2[C@@H](C)C(=O)O[C@@H]3O[C@@]4(C)CC[C@@H]1[C@]32OO4` [ARTEMISININ], the IC50 (in general, the concentration that gives 50% inhibition) in assay [1] turned out to be 4.19 ng/mL (≈ 14.8 nM); in assay [2], 1.15 ng/mL (≈ 4.07 nM).
With `COC(=O)/C=C/N1C(=O)[C@H](C)[C@@H]2CC[C@@H](C)[C@@H]3CC[C@]4(C)OO[C@]32[C@H]1O4`, the IC50 ratio in assay [3] came to 2; in assay [4] it was 1.2.
Taken in the same sequence, the figures for `CC(=O)/C=C/N1C(=O)[C@H](C)[C@@H]2CC[C@@H](C)[C@@H]3CC[C@]4(C)OO[C@]32[C@H]1O4` were 2.54 and 1.25.
The like results for `C[C@@H]1CC[C@H]2[C@@H](C)C(=O)N(/C=C/C(=O)N(C)C)[C@@H]3O[C@]4(C)CC[C@@H]1[C@@]23OO4` were, in that order, 0.39 and 0.35.
